Data reported in publication PMC6027433, “Synthesis, Evaluation of Cytotoxicity and Molecular Docking Studies of the 7-Acetamido Substituted 2-Aryl-5-bromo-3-trifluoroacetylindoles as Potential Inhibitors of Tubulin Polymerization” (Pharmaceuticals, 2018).

Legend:
[1] = test system: lung cancer (A549) cells; assay: MTT dose response cytotoxicity, A549; format: cell-based; settings: Homo sapiens, 48 h
Procedure: (§1) Cells were seeded as described in above. […] The medium was aspirated and replaced with 200 μL fresh medium containing the dilution of the respective test compound. The test sample were added to each well and the plates were incubated for a further 48 h at 37 °C under 5% CO2 atmosphere in a humidified incubator. After this incubation period, the medium was removed and then replaced with 100 μL fresh culture medium containing MTT at a final concentration of 0.5 mg/mL. The 96-well plates were returned to the incubator and incubated for an additional 3 h. The medium was removed and the MTT crystals were solubilized in 100 μL DMSO and the absorbance was measured at 560 nm using a Labsystems Multiwell Scanning spectrophotometer (Thermo Fischer Scientific, Edenvale, South Africa).
(§2) Quantification of live and dead cells for the screening assay was performed using the ImageXpress Micro XLS Widefield Microscope and acquired images analysed using the MetaXpress software and Multi-Wavelength Cell Scoring Application Module. Acquired data was transferred to an EXCEL spreadsheet and relative cell viability was determined using quadruplicate wells for each concentration. Untreated cells were considered to have 100% cell viability (i.e., the mean OD of the untreated wells = 100% viability). Cell viabilities in other test wells were calculated relative to the untreated control and expressed as a percentage. Dose response analysis was performed using the statistical software GraphPad Prism and IC50 values calculated from the concentration-response data using a mathematical Hill function.

[2] = test system: cervical cancer (HeLa) cells; assay: MTT dose response cytotoxicity, HeLa; format: cell-based; settings: Homo sapiens, 48 h
Procedure: as §1, §2

[3] = test system: HeLa cells; assay: Caspase 8 and 3 activation (immunochemical), HeLa; format: cell-based, human; settings: 24 h exposure at IC50 values
Procedure: (§3) Several distinctive mechanisms of cancer cell death such as apoptosis, necrosis, autophagy and cornification have been identified, and these are characterized by differences in morphology and biochemical changes. A major biochemical feature of apoptosis is the activation of caspases, which plays a central role in the morphological changes associated with apoptosis. Caspase activation was determined using immunochemical methods and the antibodies against activated caspase 8 and caspase 3. […] Activated caspase 8 can be used as a convenient indicator of involvement of the extrinsic death receptor pathway of apoptosis. Executioner caspases including caspase 3 are, in turn, activated by the initiator caspases. This protein is either partially or totally responsible for the cleavage of many key proteins such as PARP, DNA protein kinases and retinoblastoma protein [25]. […] This was true for both activated caspase 8 and 3. A more distinct increase was evident with caspase 3 albeit less pronounced than that of 4c and the increase was expected as caspase 3 is activated by initiator caspase including caspase 8, which is a later event in apoptosis. […] Prolonged treatment of the cells with compounds 5e–h for 48 h or more, for example, would probably result in significant effects. We also evaluated compound 5g for potential to induce other key apoptotic biochemical features such as phosphatidylserine (PS) translocation, cell cycle arrest and mitochondrial membrane depolarization.
(§4) Compounds 4c and 5g were selected for mechanism studies and these test compounds were reconstituted in dimethyl sulphoxide (DMSO) to give a final concentration of 40 mM. Samples were stored at 4 °C until required. […]
(§5) Quantification of live and dead cells for the assay was performed using the ImageXpress Micro XLS Widefield Microscope and acquired images analysed using the MetaXpress software and Multi-Wavelength Cell Scoring Application Module and the Cell Cycle Module. Acquired data was transferred to an EXCEL spreadsheet and data was analysed and processed.

[4] = test system: A549 cells; assay: Caspase 8 and 3 activation (immunochemical), A549; format: cell-based, human; settings: 24 h exposure at IC50 values
Procedure: as §3, §4, §5

[5] = test system: HeLa cells; assay: Other apoptotic features (PS translocation, cell cycle arrest, mitochondrial membrane depolarization), HeLa; format: cell-based, human; settings: after 24 h (data not included)
Procedure: (§6) Several distinctive mechanisms of cancer cell death such as apoptosis, necrosis, autophagy and cornification have been identified, and these are characterized by differences in morphology and biochemical changes. A major biochemical feature of apoptosis is the activation of caspases, which plays a central role in the morphological changes associated with apoptosis. Caspase activation was determined using immunochemical methods and the antibodies against activated caspase 8 and caspase 3. […] Activated caspase 8 can be used as a convenient indicator of involvement of the extrinsic death receptor pathway of apoptosis. Executioner caspases including caspase 3 are, in turn, activated by the initiator caspases. This protein is either partially or totally responsible for the cleavage of many key proteins such as PARP, DNA protein kinases and retinoblastoma protein [25]. […] This was true for both activated caspase 8 and 3. A more distinct increase was evident with caspase 3 albeit less pronounced than that of 4c and the increase was expected as caspase 3 is activated by initiator caspase including caspase 8, which is a later event in apoptosis. […] We also evaluated compound 5g for potential to induce other key apoptotic biochemical features such as phosphatidylserine (PS) translocation, cell cycle arrest and mitochondrial membrane depolarization.

[6] = test system: A549 cells; assay: Other apoptotic features (PS translocation, cell cycle arrest, mitochondrial membrane depolarization), A549; format: cell-based, human; settings: after 24 h (data not included)
Procedure: as §6

## CC(=O)Nc1cc(Br)cc2c(C(=O)C(F)(F)F)c(-c3cccc(Cl)c3)[nH]c12 [Compound 5g, N-[5-Bromo-2-(3-chlorophenyl)-3-trifluoroacetyl-1H-indol-7-yl]acetamide]
[1]
  IC50: 2.72 ± 0.43 µM
[2]
  IC50: 8.74 ± 0.94 µM
[3]
  Caspase 8 and 3 activation (% change in mean integrated fluorescence intensity of the untreated control): decrease
[4]
  Caspase 8 and 3 activation (% change in mean integrated fluorescence intensity of the untreated control): expected increase
[5]
  PS translocation, cell cycle arrest and mitochondrial membrane depolarization: failed to induce
[6]
  PS translocation, cell cycle arrest and mitochondrial membrane depolarization: failed to induce
